This is an account of results in patent publication US5852028A, “Pyrimidine carboxylates and related compounds and methods for treating inflammatory conditions” (Signal Pharmaceuticals, Inc., priority 1995, dated 1998).

The structures appear in SMILES notation.

By IC50 is commonly meant the concentration that gives 50% inhibition. High values mean weaker potency, low ones greater potency.

For one assay, the system named is NFκB/AP-1. Nature of the assay: NFκB and AP-1 luciferase reporter gene assays in PMA/PHA-stimulated Jurkat T-cells. The assay is classed as cell-based. The conditions noted are these: Homo sapiens, stable Jurkat T-cells, PMA/PHA stimulation, 5 h. The text has this: Stable human Jurkat T-cells containing an NFκB binding site (from the MHC promoter) fused to a minimal SV-40 promoter driving luciferase expression were used in this experiment. Cells were split to 3×10^5 cells/mL every 2-3 days (cell concentration should not exceed 1×10^6 cells/mL to keep the cells proliferating in log phase). These cells were counted, resuspended in fresh medium containing 10% Serum-Plus at a density of 1×10^6 cells/mL and plated in 96 well round bottom plates (200 μ.LAMBDA. per well) 18 hours prior to starting the experiment.
Compounds of this invention, dissolved in dimethyl sulfoxide (3.3, 0.33 and 0.03 μg/mL), were then added to the 96 well plates containing the cells and the plates were incubated for 0.5 h at 37° C. Then 50 ng/mL of phorbol 12-myristate-13-acetate (PMA) and 1 μg/mL of phytohemagglutinin (PHA) were added to each well and the cells were incubated for an additional 5 h at 37° C. The plates were centrifuged at 2200 RPM for 3 minutes at room temperature and then the medium was removed. To each well was added 60 μL of cell lysis buffer and the plates were left at room temperature for 0.25 h. Then 40 μL of each cell extract was transferred to a black 96 well plate and 50 μL of luciferase substrate buffer was added. Luminescence was immediately measured using a Packard TopCount.
For AP-1, the assay was run as described above for NFκB except stable Jurkat T-cells were used that contained a the -73 collagenase promoter driving luciferase expression. In addition, the concentration of PMA used was 5 ng/mL.
Molecule `CCOC(=O)c1cnc(NN2C(=O)C=C(C)C2=O)nc1C(F)(F)F` [Example 20, Ethyl 2-[N-(1'-aminocitraconamide)]-4-trifluoromethylpyrimidine-5-carboxylate] returned a half-maximal inhibitory concentration (IC50) of 700 nM. In turn, `CCOC(=O)c1cnc(C(F)(F)F)nc1NN1C(=O)C=C(C)C1=O` [Example 21, Ethyl 4-[N-(1'-aminocitraconamide)]-2-trifluoromethylpyrimidine-5-carboxylate] gave a half-maximal inhibitory concentration (IC50) of 500 nM. On the same count and under the same terms, to `CC(=O)c1cnc(NN2C(=O)C=C(C)C2=O)nc1C(F)(F)F` [Example 23, 5-acetyl-2-[N-(1'-aminocitraconamide)]-4-trifluoromethylpyrimidine] belongs 5000 to 10000 nM; to `CCOC(=O)c1cnc(NN2C(=O)C=C(C)C2=O)nc1CC` [Example 36, Ethyl 2-[N-(1'-aminocitraconamide)]-4-ethylpyrimidine-5-carboxylate], 150 nM; to `CCCc1nc(NN2C(=O)C=C(C)C2=O)ncc1C(=O)OCC` [Example 37, Ethyl 2-[N-(1'-aminocitraconamide)]-4-propylpyrimidine-5-carboxylate], 150 nM. With `CCOC(=O)c1cnc(NN2C(=O)C=C(C)C2=O)nc1-c1cccs1` [Example 38, Ethyl 2-[N-(1'-aminocitraconamide)]-4-(2"-thiophenyl)pyrimidine-5-carboxylate], the IC50 turned out to be 40 nM.

The molecule `CCOC(=O)c1cnc(NN2C(=O)C=C(c3ccccc3)C2=O)nc1C(F)(F)F` [Example 40, Ethyl 2-[N-(1'-amino-3'-phenylmaleimide)]-4-trifluoromethylpyrimidine-5-carboxylate] returned an IC50 of 3000 nM. On the same count and under the same terms, next, `CCOC(=O)c1cnc(NN2C(=O)C(C)=C(C)C2=O)nc1C(F)(F)F` [Example 41, Ethyl 2-[N-(1'-amino-3',4'-dimethylmaleimide)]-4-trifluoromethylpyrimidine-5-carboxylate]: 5000 nM; `CCOC(=O)c1cnc(N(C)N2C(=O)C=C(C)C2=O)nc1C(F)(F)F` [Example 42, Ethyl 2-[N-(1'-aminocitraconamide)-N-methyl]-4-trifluoromethylpyrimidine-5-carboxylate]: 300 nM; `CCOC(=O)c1cnc(C(F)(F)F)nc1NN1C(=O)C(C)=C(C)C1=O` [Example 44, Ethyl 4-[N-(1'-amino-3',4'-dimethylmaleimido)]-2-trifluoromethylpyrimidine-5-carboxylate]: 10000 to 30000 nM. Consider `CCOC(=O)c1cnc(NN2C(=O)C=C(C)C2=O)nc1C` [Example 46, Ethyl 2-[N-(1'-aminocitraconamido)]-4-methylpyrimidine-5-carboxylate], for which the half-inhibitory concentration (IC50) amounted to 4000 nM. The same measure, in the same setting: next, `CCOC(=O)c1cnc(NN2C(=O)C=C(C)C2=O)nc1C(F)(F)C(F)(F)F` [Example 48, Ethyl 2-[N-(1'-aminocitraconamido)]-4-pentafluoroethylpyrimidine-5-carboxylate]: 90 nM; `CCOC(=O)c1cnc(NN2C(=O)C=C(C)C2=O)nc1-c1ccccc1` [Example 50, Ethyl 2-[N-(1'-aminocitraconamido)]-4-phenylpyrimidine-5-carboxylate]: 1000 nM; `CCOC(=O)c1cnc(NN2C(=O)C=C(C)C2=O)nc1Cc1ccccc1` [Example 52, Ethyl 2-[N-(1'-aminocitraconamido)]-4-benzylpyrimidine-5-carboxylate]: 2000 nM. `CCOC(=O)c1cnc(NN2C(=O)C=C(C)C2=O)nc1C(=O)OCC` [Example 64, Diethyl 2-[N-(1'-aminocitraconamido)]-pyrimidine-4,5-dicarboxylate] yielded a 50% inhibitory concentration (IC50) of 1000 nM. This IC50 lies about 2-fold lower than the previous one.

The test system of the next assay is C3H mice.
Experiment: not given
The conditions noted are these: Morris et al., 1990; cited from earlier work.
For the molecule `O=P1(N(CCCl)CCCl)NCCCO1` (centres unmarked) [cyclophosphamide], the “activity in graft vs. host model (PLN assay)” value was “active”.

The next assay concerns mice.
Experiment: not given
The note with it: Morris et al., 1990; cited from earlier work.
On to `O=P1(N(CCCl)CCCl)NCCCO1` (centres unmarked) [cyclophosphamide], for which the “activity in contact sensitivity model (delayed-type hypersensitivity to oxazolone)” value is “active”.
